As a reminder, the melting point is the temperature of the solid-liquid transition.

Among the data in US8586505B2 (SDS Biotech K. K., priority 2009, dated 2013) are pest or weed control and melting point values, retold here.

The subject of one data set is Phytophthora infestans. The experiment in a line: whole plant or invertebrate. Format: in vivo. To be noted: in Solanum lycopersicum, 96 h, read-out: Determination of control effect (preventive value).
Data set [1] has as its system Pseudoperonospora cubensis. Put plainly: Test of examining control effect on Pseudoperonospora cubensis (potted cucumber plants). Format: in vivo. To be noted: 96 h, 10% wettable powder adjusted to 125 ppm, 15 ml/pot sprayed on potted cucumber plants one day before spray inoculation, assessed after 1 day wet chamber and 3 days greenhouse, read-out: Determination of control effect (preventive value) on Pseudoperonospora cubensis. Summed up:
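Cucumber plants (Sagamihanjiro, 2.5-leaf stage) sprayed with 125 ppm compound solution from 10% wettable powder, 15 ml/pot. One day later, spray-inoculated with P. cubensis conidia (1.0×10^4 cells/ml), kept 1 day at 21° C wet, then 3 days in greenhouse. Preventive value derived from lesion area relative to untreated plants.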

The subject of another data set is Sphaerotheca fuliginea. The experiment in a line: Test of examining control effect on Sphaerotheca fuliginea (potted cucumber plants). As to conditions: Podosphaera fuliginea, 336 h; 10% wettable powder adjusted to 125 ppm, 15 ml/pot sprayed on potted cucumber plants one day before spray inoculation; assessed after 14 days in greenhouse; read-out: Determination of control effect (preventive value) on Sphaerotheca fuliginea. Format: in vivo. The method in brief: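 Cucumber plants (Sagamihanjiro, 2nd leaf stage) sprayed with 125 ppm compound (from 10% wettable powder), inoculated one day later with S. fuliginea conidia (1.0×10^5 cells/ml); lesion area scored after 14 days in greenhouse. Preventive value vs untreated; ≥60% high, <60% low control.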

The next data set has as its system Tetranychus urticae eggs. Put plainly: Test of examining effect on Tetranychus urticae eggs (ovicidal rate). Format: in vivo. As to conditions: 144 h, 0.4 ml sprayed, unhatched eggs counted six days later, read-out: Determination (ovicidal rate). On the procedure: Thereafter, the released female adults were removed. […] Six days later, the number of unhatched eggs was counted, and an ovicidal rate was calculated.

Molecules are shown by their SMILES.

Compound `COC(=O)c1cccc(C#CCCNc2ncnc3sccc23)c1` [compound 30] displayed a melting point of 163 to 166 °C. Further, the pest or weed control at 125 ppm in the data set on Phytophthora infestans lay within 0 to 60%. Also, the pest or weed control at 125 µg/mL in data set [1] fell in the range of 60 to 100%. Moreover, the pest or weed control at 125 µg/mL in the data set on Sphaerotheca fuliginea was 0 to 60%. Moreover, the pest or weed control at 250 ppm in the data set with Tetranychus urticae eggs lay within 60 to 80%.
As for `CCC(CC#Cc1ccccc1)Nc1ncnc2sccc12` (centres unmarked) [compound 267], the pest or weed control at 125 ppm in the data set with Phytophthora infestans was in the range of 0 to 60%. In addition, the pest or weed control at 125 µg/mL (in data set [1]; with Sphaerotheca fuliginea) was 60 to 100% in each case. The pest or weed control at 250 ppm with Tetranychus urticae eggs fell in the range of 60 to 80%.
As for `CC(CC#Cc1ccc(Cl)cc1)Nc1ncnc2sccc12` (centres unmarked) [compound 232], the pest or weed control at 125 ppm in the data set on Phytophthora infestans was in the range of 60 to 100%. Moreover, the pest or weed control at 125 µg/mL (in data set [1]; with Sphaerotheca fuliginea) was 60 to 100% in each case. Further, in the data set with Tetranychus urticae eggs, the pest or weed control at 250 ppm lay within 80 to 95%.
`COc1ccc(C#CCCNc2ncnc3sccc23)cc1OC` [compound 24] registered a melting point of 182 to 184 °C. Besides, in the data set on Phytophthora infestans, the pest or weed control at 125 ppm fell in the range of 0 to 60%. Besides, the pest or weed control at 125 µg/mL in data set [1] was 60 to 100%. In the data set on Sphaerotheca fuliginea, the pest or weed control at 125 µg/mL was in the range of 60 to 100%. In addition, the pest or weed control at 250 ppm in the data set with Tetranychus urticae eggs is 60 to 80%.
Regarding `Clc1ccc(C#CCCNc2ncnc3sccc23)cc1` [compound 16], the pest or weed control at 125 ppm in the data set with Phytophthora infestans is 0 to 60%. The pest or weed control at 125 µg/mL (in data set [1]; in the data set with Sphaerotheca fuliginea) was 60 to 100% in each case. For the same compound, in the data set on Tetranychus urticae eggs, the pest or weed control at 250 ppm was 60 to 80%.
As to `Cc1c(Cl)ncnc1NCCC#Cc1ccccc1` [compound 356], the pest or weed control at 125 ppm with Phytophthora infestans fell in the range of 60 to 100%. The pest or weed control at 125 µg/mL (in data set [1]; in the data set with Sphaerotheca fuliginea) was 60 to 100% throughout. Further, the pest or weed control at 250 ppm in the data set on Tetranychus urticae eggs lay within 80 to 95%.
For `CC(CC#Cc1ccc(F)cc1C(F)(F)F)Nc1ncnc2sccc12` (centres unmarked) [compound 249], the pest or weed control at 125 ppm in the data set on Phytophthora infestans is 60 to 100%. The pest or weed control at 125 µg/mL (in data set [1]; in the data set with Sphaerotheca fuliginea) was 60 to 100% in each case. Further, the pest or weed control at 250 ppm in the data set on Tetranychus urticae eggs is at least 95%.
In the case of `CC(F)c1ncnc(NCCC#Cc2ccc(Cl)cc2C(F)(F)F)c1Cl` (centres unmarked) [compound 377], the pest or weed control at 125 ppm in the data set on Phytophthora infestans was 0 to 60%. For the same compound, the pest or weed control at 125 µg/mL (in data set [1]; with Sphaerotheca fuliginea) was 60 to 100% in each case. Also, the pest or weed control at 250 ppm in the data set on Tetranychus urticae eggs is at least 95%.
Regarding `CC(CC#Cc1ccccc1Cl)Nc1ncnc2sccc12` (centres unmarked) [compound 231], in the data set with Phytophthora infestans, the pest or weed control at 125 ppm was 60 to 100%. For the same compound, the pest or weed control at 125 µg/mL (in data set [1]; in the data set on Sphaerotheca fuliginea) was 60 to 100% each time. Further, the pest or weed control at 250 ppm in the data set with Tetranychus urticae eggs lay within 60 to 80%.
Consider `COc1cccc(C#CCCNc2ncnc3sccc23)c1` [compound 22], for which, in the data set on Phytophthora infestans, the pest or weed control at 125 ppm lay in the range of 0 to 60%. The pest or weed control at 125 µg/mL (in data set [1]; with Sphaerotheca fuliginea) was 60 to 100% each time. Besides, the pest or weed control at 250 ppm with Tetranychus urticae eggs is 60 to 80%.
`CC(F)c1ncnc(NCCC#Cc2ccccc2)c1Cl` (centres unmarked) [compound 376]: the pest or weed control at 125 ppm with Phytophthora infestans was 60 to 100%. Moreover, the pest or weed control at 125 µg/mL (in data set [1]; in the data set with Sphaerotheca fuliginea) was 60 to 100% throughout. The pest or weed control at 250 ppm in the data set with Tetranychus urticae eggs was at least 95%.
Regarding `CC(CC#Cc1ccc(F)cc1Cl)Nc1ncnc2sccc12` (centres unmarked) [compound 247], in the data set with Phytophthora infestans, the pest or weed control at 125 ppm fell in the range of 60 to 100%. Besides, the pest or weed control at 125 µg/mL (in data set [1]; in the data set on Sphaerotheca fuliginea) was 60 to 100% each time. The pest or weed control at 250 ppm in the data set with Tetranychus urticae eggs was 60 to 80%.
Regarding `Cc1ccc(C#CCCNc2ncnc3sccc23)cc1` [compound 19], the pest or weed control at 125 ppm in the data set on Phytophthora infestans fell in the range of 0 to 60%. Also, the pest or weed control at 125 µg/mL (in data set [1]; with Sphaerotheca fuliginea) was 60 to 100% throughout. Also, the pest or weed control at 250 ppm with Tetranychus urticae eggs was 60 to 80%.
In the case of `CC(CC#Cc1ccc(S(F)(F)(F)(F)F)cc1)Nc1ncnc2ccccc12` (centres unmarked) [compound 277], the pest or weed control at 125 ppm with Phytophthora infestans fell in the range of 0 to 60%. The pest or weed control at 125 µg/mL (in data set [1]; in the data set with Sphaerotheca fuliginea) was 60 to 100% throughout. For the same compound, the pest or weed control at 250 ppm in the data set with Tetranychus urticae eggs was at least 95%.
Turning to `CC(CC#Cc1ccc(S(F)(F)(F)(F)F)cc1Cl)Nc1ncnc2sccc12` (centres unmarked) [compound 253], the pest or weed control at 125 ppm in the data set with Phytophthora infestans fell in the range of 0 to 60%. For the same compound, the pest or weed control at 125 µg/mL (in data set [1]; with Sphaerotheca fuliginea) was 60 to 100% in each case. For the same compound, the pest or weed control at 250 ppm with Tetranychus urticae eggs was 60 to 80%.
On to `CC(CC#Cc1ccc(C(C)C)cc1)Nc1ncnc2sccc12` (centres unmarked) [compound 241], for which, in the data set with Phytophthora infestans, the pest or weed control at 125 ppm lay in the range of 60 to 100%. Further, the pest or weed control at 125 µg/mL (in data set [1]; in the data set on Sphaerotheca fuliginea) was 60 to 100% in each case. Besides, the pest or weed control at 250 ppm in the data set with Tetranychus urticae eggs is at least 95%.
As to `Fc1cc2ncnc(NCCC#Cc3ccc(Cl)cc3C(F)(F)F)c2cc1F` [compound 355], in the data set with Phytophthora infestans, the pest or weed control at 125 ppm lay within 60 to 100%. For the same compound, the pest or weed control at 125 µg/mL (in data set [1]; with Sphaerotheca fuliginea) was 60 to 100% in each case. Further, the pest or weed control at 250 ppm in the data set on Tetranychus urticae eggs was at least 95%.
In the case of `CC(CC#Cc1ccc(C(F)(F)F)cc1Cl)Nc1ncnc2sccc12` (centres unmarked) [compound 257], in the data set on Phytophthora infestans, the pest or weed control at 125 ppm fell in the range of 60 to 100%. Further, the pest or weed control at 125 µg/mL (in data set [1]; in the data set with Sphaerotheca fuliginea) was 60 to 100% each time. Further, the pest or weed control at 250 ppm in the data set with Tetranychus urticae eggs lay in the range of 80 to 95%.
Take `CC(CC#Cc1ccc(C(F)(F)F)cc1F)Nc1ncnc2ccccc12` (centres unmarked) [compound 288]: the pest or weed control at 125 ppm in the data set with Phytophthora infestans was in the range of 0 to 60%. Besides, the pest or weed control at 125 µg/mL (in data set [1]; with Sphaerotheca fuliginea) was 60 to 100% in each case. Further, the pest or weed control at 250 ppm in the data set on Tetranychus urticae eggs is at least 95%.
In the case of `CC(CC#Cc1ccc(C(C)C)cc1C(F)(F)F)Nc1ncnc2ccccc12` (centres unmarked) [compound 289], the pest or weed control at 125 ppm with Phytophthora infestans lay within 0 to 60%. Moreover, the pest or weed control at 125 µg/mL (in data set [1]; in the data set with Sphaerotheca fuliginea) was 60 to 100% each time. In the data set with Tetranychus urticae eggs, the pest or weed control at 250 ppm is at least 95%.
Turning to `Cc1ccc(C#CCC(C)Nc2ncnc3sccc23)c(C)c1` (centres unmarked) [compound 259], the pest or weed control at 125 ppm with Phytophthora infestans was in the range of 60 to 100%. Moreover, the pest or weed control at 125 µg/mL (in data set [1]; in the data set on Sphaerotheca fuliginea) was 60 to 100% each time. Besides, the pest or weed control at 250 ppm in the data set on Tetranychus urticae eggs was at least 95%.
`CC(CC#Cc1ccc(S(F)(F)(F)(F)F)cc1Cl)Nc1ncnc2ccccc12` (centres unmarked) [compound 283]: the pest or weed control at 125 ppm in the data set on Phytophthora infestans lay within 60 to 100%. Also, the pest or weed control at 125 µg/mL (in data set [1]; in the data set on Sphaerotheca fuliginea) was 60 to 100% in each case. The pest or weed control at 250 ppm in the data set with Tetranychus urticae eggs lay in the range of 60 to 80%.
Take `CC(CC#Cc1ccc(Cl)cc1C(F)(F)F)Nc1ncnc(C(C)F)c1Cl` (centres unmarked) [compound 382]: the pest or weed control at 125 ppm in the data set on Phytophthora infestans lay within 0 to 60%. Also, the pest or weed control at 125 µg/mL (in data set [1]; with Sphaerotheca fuliginea) was 60 to 100% each time. In addition, the pest or weed control at 250 ppm in the data set with Tetranychus urticae eggs is at least 95%.
In the case of `CCCCC(CC#Cc1ccccc1)Nc1ncnc2sccc12` (centres unmarked) [compound 269], the pest or weed control at 125 ppm in the data set on Phytophthora infestans lay within 0 to 60%. Also, the pest or weed control at 125 µg/mL (in data set [1]; in the data set with Sphaerotheca fuliginea) was 60 to 100% throughout. Moreover, the pest or weed control at 250 ppm with Tetranychus urticae eggs lay in the range of 60 to 80%.
As for `Cc1ccccc1C#CCC(C)Nc1ncnc2sccc12` (centres unmarked) [compound 239], in the data set with Phytophthora infestans, the pest or weed control at 125 ppm was in the range of 60 to 100%. Moreover, the pest or weed control at 125 µg/mL (in data set [1]; in the data set with Sphaerotheca fuliginea) was 60 to 100% in each case. Also, in the data set on Tetranychus urticae eggs, the pest or weed control at 250 ppm fell in the range of 80 to 95%.
With `CC(CC#Cc1ccc(Cl)cc1CO)Nc1ncnc2sccc12` (centres unmarked) [compound 245], the pest or weed control at 125 ppm in the data set on Phytophthora infestans fell in the range of 60 to 100%. The pest or weed control at 125 µg/mL (in data set [1]; in the data set on Sphaerotheca fuliginea) was 60 to 100% throughout. Also, in the data set with Tetranychus urticae eggs, the pest or weed control at 250 ppm fell in the range of 80 to 95%.
On to `CC(CC#Cc1cc(F)ccc1C(F)(F)F)Nc1ncnc2sccc12` (centres unmarked) [compound 248], for which, in the data set on Phytophthora infestans, the pest or weed control at 125 ppm lay within 0 to 60%. In addition, the pest or weed control at 125 µg/mL (in data set [1]; in the data set with Sphaerotheca fuliginea) was 60 to 100% in each case. Further, the pest or weed control at 250 ppm with Tetranychus urticae eggs lay in the range of 60 to 80%.
